Source: PubChem BioAssay (NCI)
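All cell lines were grown in 96-well plates and treated with compound for 48 hours. At the TGI there is no net growth.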

What was measured:
Test in all cases: DTP human tumour cell line panel, 48 h
CAKI-1 renal = system: CAKI-1 renal
MALME-3M melanoma = system: MALME-3M melanoma
SK-MEL-28 melanoma = system: SK-MEL-28 melanoma
SK-OV-3 ovarian = system: SK-OV-3 ovarian
OVCAR-3 ovarian = system: OVCAR-3 ovarian
UO-31 renal = system: UO-31 renal
786-0 renal = system: 786-0 renal
SK-MEL-5 melanoma = system: SK-MEL-5 melanoma
HCT-116 colon = system: HCT-116 colon
SN12C renal = system: SN12C renal
IGROV1 ovarian = system: IGROV1 ovarian
UACC-257 melanoma = system: UACC-257 melanoma
CCRF-CEM leukemia = system: CCRF-CEM leukemia
HCC-2998 colon = system: HCC-2998 colon
HOP-62 NSCLC = system: HOP-62 NSCLC
RPMI-8226 leukemia = system: RPMI-8226 leukemia
EKVX NSCLC = system: EKVX NSCLC
KM12 colon = system: KM12 colon
MDA-N = system: MDA-N

| Compound | TGI (CAKI-1 renal) [µM] | TGI (MALME-3M melanoma) [µM] | TGI (SK-MEL-28 melanoma) [µM] | TGI (SK-OV-3 ovarian) [µM] | TGI (OVCAR-3 ovarian) [µM] | TGI (UO-31 renal) [µM] | TGI (786-0 renal) [µM] | TGI (SK-MEL-5 melanoma) [µM] | TGI (HCT-116 colon) [µM] | TGI (SN12C renal) [µM] | TGI (IGROV1 ovarian) [µM] | TGI (UACC-257 melanoma) [µM] | TGI (CCRF-CEM leukemia) [µM] | TGI (HCC-2998 colon) [µM] | TGI (HOP-62 NSCLC) [µM] | TGI (RPMI-8226 leukemia) [µM] | TGI (EKVX NSCLC) [µM] | TGI (KM12 colon) [µM] | TGI (MDA-N) [µM] |
| --- | --- | --- | --- | --- | --- | --- | --- | --- | --- | --- | --- | --- | --- | --- | --- | --- | --- | --- | --- |
| CCCCCCCCCCCCCCCCCC(=O)O[C@H](COC(=O)CCCCCCCCCCC)COC(=O)CCCCCCCCCCCCCCC | > 100 | > 100 | > 100 | > 100 | > 100 | > 100 | > 100 | > 100 | > 100 | > 100 | > 100 | > 100 | > 100 | > 100 | > 100 | > 100 |  |  |  |
| COc1cc(C2SCC(=O)N2c2ccc(-c3ccc(-n4c(-c5ccccc5)nc5ccccc5c4=O)cc3)cc2)cc(OC)c1OC (stereo not drawn) | 45.8 | > 100 | > 100 | > 100 | 80.9 | > 100 | 47.6 | > 100 | 35.1 | > 100 | > 100 |  | > 100 | > 100 | 85.5 | > 100 | > 100 | 62.9 |  |
| CC(=O)OC1CC2C(C)(C)OC(=O)CC(OC(C)=O)[C@]2(C)C2CCC3(C)C(=CCC3[C@H]3COC(=O)C3)[C@]12C (stereo partly drawn) | > 100 | > 100 | > 100 | > 100 | > 100 | > 100 | > 100 | > 100 | > 100 | > 100 | > 100 |  | 65.8 | > 100 | > 100 | > 100 | > 100 | > 100 |  |
| O=C1Nc2c(ccc(Cl)c2I)C1=O | 30.6 | 28.3 | 32.7 | 48.3 | 55.7 | 32.1 | 28.2 | 29.5 | 33.4 | 30.9 | 30.7 |  | 60.9 | 34.4 | 48.3 | 35.8 | 36.8 | 65.6 |  |
| COc1ccc(O)cc1 | > 100 | > 100 | > 100 | > 100 | > 100 | > 100 | > 100 | > 100 | > 100 | > 100 | > 100 | > 100 | > 100 | > 100 | > 100 | > 100 | > 100 | > 100 |  |
| CCCC(C)NC1=C(NC(C)=O)C(=O)c2ccccc2C1=O (stereo not drawn) |  | > 100 | > 100 | > 100 | > 100 | > 100 | > 100 | > 100 | > 100 | > 100 | > 100 | > 100 | > 100 | > 100 | > 100 |  | > 100 | > 100 |  |
| O=C1c2ccccc2CCCCCCCCCCC12OCCCO2 | 95.7 | 77.8 | > 100 | > 100 | > 100 | > 100 | > 100 | 83.8 | 38.3 | > 100 | > 100 | 72.7 | 83.3 | 68.2 | > 100 | 40 |  | > 100 |  |
| Cc1cn(C(Cc2ccccc2)OCCO)c(=O)[nH]c1=O (stereo not drawn) | > 100 |  | > 100 |  | > 100 | > 100 | > 100 | > 100 | > 100 | > 100 | > 100 | > 100 | > 100 | > 100 | > 100 | > 100 | > 100 | > 100 | > 100 |
| O=C(O)CC[N+]1=CCC(c2ccccc2)(c2ccccc2)O1 | > 100 |  | > 100 | > 100 | > 100 | > 100 | > 100 | > 100 | > 100 | > 100 | > 100 | > 100 |  | > 100 | > 100 |  | > 100 |  | > 100 |
| Cc1ccc(/C(O)=C/C(=O)C(=O)/C=C(\O)c2ccc(C)cc2C)c(C)c1 | 3.69 | 3.45 | 3.84 | 3.47 | 3.51 | 3.65 | 4.28 | 3.26 | 6.58 | 4.88 | 4.42 | 3.21 | 3.17 | 4.09 | 3.24 | 4.59 | 5.56 | 3.44 |  |
| Nc1c(Cl)ncnc1N[C@@H]1C[C@H]1CO | > 100 |  | > 100 |  | > 100 | > 100 | > 100 | > 100 | > 100 | > 100 | > 100 | > 100 | > 100 | > 100 | > 100 |  | > 100 | > 100 | > 100 |
| O=C1OC2(OC2c2ccccc2)c2ccccc21 (stereo not drawn) |  | > 100 | > 100 | > 100 | > 100 | > 100 | > 100 | > 100 | > 100 | > 100 | > 100 | > 100 | > 100 | > 100 | > 100 | > 100 | > 100 | > 100 |  |
| NC1=NS(=O)(=O)Nc2nc(-c3ccc(Cl)cc3)c(-c3ccc(Cl)cc3)nc21 | > 100 | > 100 | > 100 |  | > 100 | > 100 | > 100 | > 100 | > 100 | > 100 | > 100 | > 100 | > 100 | > 100 | > 100 |  |  | > 100 |  |
| CCc1ccc2oc(-c3cc(O)c(-c4nc5cc(CC)ccc5o4)cc3O)nc2c1 |  |  | > 100 | > 100 |  | > 100 | > 100 | > 100 | > 100 | > 100 | > 100 |  | > 100 | > 100 | > 100 | > 100 | > 100 |  | > 100 |
| O=C(Cc1ccccc1)NN1C(=O)C(Cl)C1c1ccc(O)cc1 (stereo not drawn) | > 100 | > 100 | > 100 | > 100 | > 100 | > 100 | > 100 | > 100 | > 100 | > 100 | > 100 | > 100 | > 100 | > 100 | > 100 | > 100 | > 100 | > 100 |  |
| NC1=NS(=O)(=O)Nc2nc(-c3ccc([N+](=O)[O-])o3)[nH]c21 | 35.7 | 30.6 | 30.1 |  | 52.8 | 36.5 | 29 | 33.4 | 17.7 | 36.4 | 31.5 |  | 16.9 | 32.2 | 32.4 | 46.7 |  | 36.1 |  |
| O=C1c2ccc3c4ccccc4n(Cc4ccccc4)c3c2C(=O)N1c1ccccc1 | 25.1 | 29.9 | 31.3 | > 55.6 | 11.9 | 30.1 | 26.7 | 29.9 | 30 | 30.1 | 35.7 | 29.9 | 3.68 | 37.2 | > 57.6 | 40.1 | 39.4 | 30.6 |  |
| CC1=COC(C)(C=C(C#N)C#N)CC1 (stereo not drawn) |  | > 100 | > 100 | > 100 |  | > 100 | > 100 | > 100 | > 100 | > 100 | > 100 | > 100 | > 100 | > 100 | > 100 | > 100 | > 100 | > 100 |  |
| CN1NC(=Nc2ccccc2)Sc2c1cnn(-c1ccccc1)c2=O |  | > 100 |  | > 100 | 90.6 | > 100 | > 100 |  | > 100 | > 100 | > 100 | > 100 | > 100 | > 100 | > 100 | > 100 | > 100 | > 100 |  |
| CC(C)C(=O)/C=C/c1ccc(Br)cc1 |  |  | 41 | 49.6 | 27.3 | 30.1 | 23.2 | 26.6 | 17.4 | 28.5 | 34.5 | 30.8 | 21.5 | 30.9 |  | 39.2 | 50.9 | 27.5 |  |
| CC(=O)Nc1cc2c(s1)CCC1CC(=O)NN=C21 (stereo not drawn) |  | > 100 | > 100 |  | > 100 | > 100 | > 100 | > 100 | > 100 | > 100 | > 100 |  | > 100 |  | > 100 | > 100 | > 100 | > 100 |  |
| O=C1c2ccccc2C(=O)N1Cc1ccccc1-c1c2nc(c(-c3ccccc3CN3C(=O)c4ccccc4C3=O)c3ccc([nH]3)c(-c3ccccc3CN3C(=O)c4ccccc4C3=O)c3nc(c(-c4ccccc4CN4C(=O)c5ccccc5C4=O)c4ccc1[nH]4)C=C3)C=C2 | > 100 | > 100 | > 100 | > 100 | > 100 | > 100 | > 100 | > 100 | > 100 | > 100 | > 100 | > 100 | > 100 |  | > 100 | > 100 |  | > 100 |  |
| Nn1c(CCCCCCCCc2nnc(COc3ccc(Cl)cc3)n2N)nnc1COc1ccc(Cl)cc1 | 35.6 | > 100 | > 100 | > 100 |  | > 100 | > 100 | > 100 | > 100 | > 100 | > 100 | > 100 |  | > 100 |  | > 100 | > 100 | > 100 |  |
| O=C(CSc1nnc(Cc2ccccc2)o1)Nc1ccc([N+](=O)[O-])cc1 |  | > 100 | > 100 | > 100 | > 100 | > 100 | > 100 | > 100 | > 100 | > 100 | > 100 | > 100 | > 100 | > 100 | > 100 | > 100 |  | > 100 |  |
| COc1cc2cccc(N=Cc3cccc(OC)c3OC(C)C)c2cc1OC | 42.9 | 59.8 | 66.9 | 73 | 41 | > 100 | 37.8 | 53.9 |  | > 100 | 70.2 | 52.4 | > 100 | > 100 | 80.3 | 37.7 | > 100 | 57.2 |  |
| COC(=O)N/N=C(\C)C(CN1CCCCC1)C(C1=C(O)c2ccccc2OC1)c1ccccc1 (stereo not drawn) | > 100 | > 100 | > 100 | > 100 | > 100 | > 100 | > 100 | > 100 | > 100 | > 100 | > 100 | > 100 | > 100 |  | > 100 | > 100 | > 100 | > 100 |  |
| c1cc2nnnn2nc1N1CCCC1 | > 100 |  | > 100 | > 100 |  | > 100 | > 100 | > 100 | > 100 | > 100 |  | > 100 | > 100 | > 100 |  | > 100 |  | > 100 | > 100 |
| CCCSc1ccc2[nH]c(/N=C/c3ccco3)cc2c1 | > 100 | > 100 | > 100 | > 100 | > 100 | > 100 | > 100 | 32.6 | > 100 | > 100 | > 100 | > 100 | 80 |  | > 100 | 1.4 | 68.8 | > 100 |  |
